Twelve compounds from ChEMBL document CHEMBL1154906, “Additional insights on the bastadins: isolation of analogues from the sponge Ianthella cf. reticulata and exploration of the oxime configurations” (J Nat Prod, 2010) can be followed below.

Calls of active or inactive are those of the source. No cut-off for these calls is given here.

Test [1] relates to Trypanosoma brucei brucei. In words: Antitrypanosomal activity against Trypanosoma brucei brucei 221 after 48 hrs by ATP-bioluminescence assay. The class given is functional, organism-based. The note with it: for IC50: Trypanosoma brucei, 221, 48 h.
In a further test the test system is HCT-116. In words: Cytotoxicity against human HCT116 cells after 7 days by methylene blue staining. It counts as functional, cell-based.

Take `O=C1N/C=C/c2ccc(c(Br)c2)Oc2cc(cc(Br)c2O)CCNC(=O)/C(=N/O)Cc2cc(Br)c(c(Br)c2)Oc2cc(cc(Br)c2O)C/C1=N\O` [BASTADIN 4]: the outcome in test [1] was inactive. Besides, the IC50 (usually the concentration that inhibits the measured activity by half) in the test on HCT-116 (HCT-116, 168 h) came to 1.28 µM.

Turning to `O=C1N/C=C/c2ccc(c(Br)c2)Oc2cc(cc(Br)c2O)CCNC(=O)/C(=N/O)Cc2ccc(c(Br)c2)Oc2cc(cc(Br)c2O)C/C1=N\O`, the outcome in test [1] was inactive.

On to `O=C1NCCc2cc(Br)c(O)c(c2)Oc2c(Br)cc(cc2Br)CCNC(=O)/C(=N/O)Cc2cc(Br)c(O)c(c2)Oc2c(Br)cc(cc2Br)C/C1=N\O`, for which the result (in test [1]; with HCT-116) was inactive.

Take `O=C(NCCc1ccc(O)c(Br)c1)/C(Cc1cc(Br)c2c(c1)-c1cc(C/C(=N\O)C(=O)NCCc3ccc(O)c(Br)c3)cc(Br)c1OCO2)=N\O`: the result with HCT-116 was inactive.

Take `O=C(NCCc1ccc(O)c(Br)c1)/C(Cc1cc(Br)c(O)c(Oc2c(Br)cc(C/C(=N\O)C(=O)NCCc3ccc(O)c(Br)c3)cc2Br)c1)=N\O`: the result in test [1] was inactive.

As to `O=C(NCCc1ccc(O)c(Br)c1)/C(Cc1cc(Br)c(O)c(-c2cc(C/C(=N/O)C(=O)NCCc3ccc(O)c(Br)c3)cc(Br)c2O)c1)=N\O`, in the test with HCT-116, the result was inactive.

Take `O=C1NCCc2cc(Br)c(O)c(c2)Oc2ccc(cc2Br)[C@H](O)CNC(=O)/C(=N/O)Cc2cc(Br)c(O)c(c2)Oc2c(Br)cc(cc2Br)C/C1=N\O`: in test [1], the result was inactive.

Turning to `O=C1NCCc2cc(Br)c(O)c(c2)Oc2ccc(cc2)CCNC(=O)/C(=N/O)Cc2cc(Br)c(O)c(c2)Oc2c(Br)cc(cc2Br)C/C1=N\O`, the outcome in test [1] was inactive.

As for `O=C1NCCc2cc(Br)c(O)c(c2)Oc2ccc(cc2Br)CCNC(=O)/C(=N\O)Cc2cc(Br)c(O)c(c2)Oc2c(Br)cc(cc2Br)C/C1=N/O`, the outcome (in test [1]; with HCT-116) was inactive.

Turning to `O=C1NCCc2ccc(c(Br)c2)Oc2cc(ccc2O)CCNC(=O)/C(=N/O)Cc2cc(Br)c(O)c(c2)Oc2c(Br)cc(cc2Br)C/C1=N\O` [BASTADIN 13], half-maximal inhibition in test [1] (IC50) required 1.77 µM.

In the case of `O=C1NCCc2ccc(c(Br)c2)Oc2cc(cc(Br)c2O)CCNC(=O)/C(=N/O)Cc2cc(Br)c(O)c(c2)Oc2c(Br)cc(cc2Br)C/C1=N/O`, the result in the test with HCT-116 was inactive.

`O=C1NCCc2ccc(c(Br)c2)Oc2cc(cc(Br)c2O)CCNC(=O)/C(=N/O)Cc2cc(Br)c(O)c(c2)Oc2c(Br)cc(cc2Br)C/C1=N\O` [BASTADIN 19] returned an IC50 in test [1] of 1.31 µM. Further, the outcome with HCT-116 was inactive.
